Data: the supplement of paper PMC10307832

Experiments:
Assay in all cases: relative viability (nuclei count vs DMSO), 5 days (fraction); higher = more cells survive
[1] = compound: C1=CC2=C(C=CC(=C2)C=C3C(=O)NC(=NCC4=CC=CS4)S3)N=C1 [RO-3306] + CC(=O)c1c(C)c2cnc(Nc3ccc(N4CCNCC4)cn3)nc2n(C2CCCC2)c1=O [Palbociclib] (partner 0.5 µM)
Outline: (§1)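 Lung cancer cell lines in 1536-well plates got either a single drug or a fixed anchor-drug dose together with five library-drug doses (not always all listed) in √10 steps, by pin tool, on the day after seeding. Nuclei were counted after 5 days, and relative viability is the treated-to-vehicle ratio of nuclei counts. Values are medians of duplicate plates.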

[2] = compound: C1=CC2=C(C=CC(=C2)C=C3C(=O)NC(=NCC4=CC=CS4)S3)N=C1 [RO-3306] + Cc1cc(Nc2cc(N3CCN(C)CC3)nc(Sc3ccc(NC(=O)C4CC4)cc3)n2)n[nH]1 [Tozasertib] (partner 0.1 µM)
Outline: as §1

[3] = compound: O=S(=O)(c1ccccc1)N(CC(F)(F)F)c1ccc(C(O)(C(F)(F)F)C(F)(F)F)cc1 + C[C@@H](Oc1cc(-c2cnn(C3CCNCC3)c2)cnc1N)c1c(Cl)ccc(F)c1Cl [Crizotinib] (partner 1 µM)
Outline: as §1

[4] = compound: O=S(=O)(c1ccccc1)N(CC(F)(F)F)c1ccc(C(O)(C(F)(F)F)C(F)(F)F)cc1 + N=C(N)NC(=N)NCCc1ccccc1 [Phenformin] (partner 250 µM)
Outline: as §1

[5] = compound: O=S(=O)(c1ccccc1)N(CC(F)(F)F)c1ccc(C(O)(C(F)(F)F)C(F)(F)F)cc1 + O=C(c1cc(Cc2n[nH]c(=O)c3ccccc23)ccc1F)N1CCN(C(=O)C2CC2)CC1 [Olaparib] (partner 8 µM)
Outline: as §1

Row | Cell Line | relative viability ([1]; first compound 0.01 µM) | relative viability ([1]; first compound 0.1 µM) | relative viability ([1]; first compound 0.3162 µM) | relative viability ([1]; first compound 1 µM) | relative viability ([2]; first compound 0.01 µM) | relative viability ([2]; first compound 0.03162 µM) | relative viability ([2]; first compound 0.1 µM) | relative viability ([2]; first compound 0.3162 µM) | relative viability ([2]; first compound 1 µM) | relative viability ([3]; first compound 0.8 µM) | relative viability ([3]; first compound 2.53 µM) | relative viability ([3]; first compound 8 µM) | relative viability ([4]; first compound 0.8 µM) | relative viability ([4]; first compound 2.53 µM) | relative viability ([4]; first compound 8 µM) | relative viability ([5]; first compound 0.8 µM) | relative viability ([5]; first compound 2.53 µM) | relative viability ([5]; first compound 8 µM) | relative viability ([1]; first compound 0.03162 µM)
1 | NCI-H23 | 0.513 | 0.46 | 0.472 | 0.454 | 0.279 | 0.304 | 0.394 | 0.124 | 0.301 | 0.471 | 0.452 | 0.513 | 0.828 | 0.743 | 0.699 | 0.31 | 0.23 | 0.302 | 
2 | NCI-H2405 | 0.553 | 0.562 | 0.518 | 0.494 | 0.746 | 0.723 | 0.704 | 0.675 | 0.628 | 0.884 | 0.837 | 0.9 | 0.386 | 0.402 | 0.396 | 0.846 | 0.819 | 0.777 | 0.45
3 | HARA | 0.207 | 0.265 | 0.24 | 0.311 | 0.146 | 0.11 | 0.453 | 0.0948 | 0.101 | 0.98 | 0.945 | 0.682 | 0.438 | 0.357 | 0.304 | 0.995 |  | 0.678 | 
4 | HCC-44 | 1.01 | 0.993 | 0.96 | 0.952 | 1.17 | 0.947 | 0.925 | 0.873 | 0.676 | 0.926 | 0.749 | 0.699 | 0.198 | 0.185 | 0.185 | 0.932 | 0.969 | 0.999 | 0.932
5 | CAL-12T | 0.67 | 0.385 | 0.388 | 0.475 | 0.364 | 0.245 | 0.303 | 0.371 | 0.261 | 0.708 | 0.417 | 0.477 | 0.512 | 0.471 | 0.464 | 0.686 | 0.616 | 0.591 | 0.396
6 | NCI-H838 | 0.228 | 0.254 | 0.254 | 0.193 | 0.308 | 0.283 | 0.255 | 0.258 | 0.264 | 1.05 | 0.866 | 0.815 | 0.656 | 0.56 | 0.627 | 0.937 | 0.736 | 0.86 | 0.211
7 | LK-2 | 0.862 | 0.615 | 0.908 | 0.651 | 0.183 |  | 0.164 | 0.167 | 0.169 | 0.2 | 0.229 | 0.242 | 0.505 | 0.66 | 0.555 | 0.918 | 0.845 | 0.816 | 0.574
8 | NCI-H358 | 0.163 | 0.126 | 0.116 | 0.112 | 0.0852 | 0.0922 | 0.103 | 0.102 | 0.101 | 0.606 | 0.515 | 0.512 | 0.265 | 0.236 | 0.261 |  | 0.563 | 0.517 | 0.106
9 | SW 1573 | 0.445 | 0.377 | 0.316 | 0.369 | 0.198 |  | 0.17 | 0.175 | 0.168 | 0.709 | 0.75 | 0.636 | 0.47 | 0.37 | 0.401 | 0.527 | 0.43 | 0.514 | 0.399
10 | LCLC-103H | 0.472 | 0.514 | 0.492 | 0.486 | 0.439 | 0.45 | 0.405 | 0.458 | 0.499 | 1.14 | 1.13 | 1.15 | 0.367 | 0.297 | 0.318 | 0.813 | 0.737 | 0.772 | 0.462
11 | HCC-827 | 0.462 | 0.461 | 0.54 | 0.54 | 0.452 | 0.417 | 0.376 | 0.4 | 0.419 | 0.932 | 0.917 | 0.95 | 0.448 | 0.411 | 0.4 | 0.612 | 0.627 | 0.63 | 0.477
12 | NCI-H1666 | 0.734 | 0.603 | 0.616 | 0.609 | 0.64 | 0.588 | 0.59 | 0.631 | 0.59 | 0.96 | 0.795 | 0.82 | 0.537 | 0.541 | 0.511 | 0.757 | 0.683 | 0.679 | 0.631
13 | NCI-H460 | 0.191 | 0.142 | 0.26 | 0.136 | 0.217 | 0.542 | 0.392 | 0.116 | 0.0669 | 0.824 | 1.03 | 1 | 0.613 | 0.469 | 0.451 | 0.452 | 0.432 | 0.407 | 0.12
14 | NCI-H2087 | 0.226 | 0.171 | 0.238 | 0.197 | 0.254 | 0.19 | 0.214 | 0.228 | 0.217 | 1.11 | 0.841 | 0.918 | 0.512 | 0.456 | 0.341 | 0.643 | 0.609 | 0.637 | 0.233
15 | NCI-H2085 | 0.448 | 0.506 | 0.446 | 0.471 | 0.763 | 0.775 | 0.78 | 0.712 | 0.641 | 0.836 | 0.852 | 0.844 | 0.805 | 0.695 | 0.741 | 0.745 | 0.686 | 0.742 | 0.48
16 | NCI-H1299 |  |  |  |  |  |  |  |  |  | 0.958 | 0.942 | 0.906 |  |  |  | 0.961 | 0.949 | 0.96 | 
17 | ChaGo-K-1 | 1.04 | 0.911 | 0.871 | 0.578 | 0.209 | 0.234 | 0.209 | 0.216 | 0.234 | 1.31 | 1.07 | 0.613 | 0.517 | 0.52 | 0.474 | 0.466 | 0.427 | 0.388 | 0.854
